According to patent US10392348B2, “2-oxo-3,4-dihydroquinoline compounds as plant growth regulators” (Syngenta Participations AG, priority 2015, dated 2019):
Like-named read-outs stand apart in the source and are kept apart here.

Legend:
[1] = test system: corn plants (variety NK OCTET); experiment: Reduced plant water use in corn (foliar spray, repeated weighing of pots); type: in vivo; settings: Zea mays, corn plants sprayed at 500 μM, average of 6 pots
Outline: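 Water use was summed over 0–2.5 days after application, from repeated day-time weighings of pots and corrected by ANCOVA for pre-application baseline. Plants, 12 days old, received foliar EC sprays diluted with water plus 0.4% rape seed methyl ester adjuvant.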

[2] = test system: soybean plants (variety S20-G7); experiment: Reduced plant water use in soybean (foliar spray, repeated weighing of pots); type: in vivo; settings: Glycine max, foliar, Table B1, sprayed at 500 μM, vs negative control
Outline: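 Daytime water use was tracked by weighing pots of 12-day-old soybean after foliar spray of compound formulated as EC plus EXTRAVON 1 g/20 L. Cumulative total (0-2.5 DAA) sums a.m. and p.m. readings; values baseline-adjusted by covariance analysis against formulation-only negative control.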

[3] = 0 h, water use during day time vs negative control, 0 DAA a.m. (10:30-12:50), read-out: % WU 0 DAA AM
[4] = 0 h, water use during day time vs negative control, 0 DAA p.m. (14:00-19:50), read-out: % WU 0DAA PM
[5] = 24 h, water use during day time vs negative control, 1 DAA a.m. (07:30-12:50), read-out: % WU 1DAA AM
[6] = 24 h, water use during day time vs negative control, 1 DAA p.m. (14:00-19:50), read-out: % WU 1DAA PM
[7] = 48 h, water use during day time vs negative control, 2 DAA a.m. (07:30-12:50), read-out: % WU 2 DAA AM
[8] = 48 h, water use during day time vs negative control, 2 DAA p.m. (14:00-19:50), read-out: % WU 2 DAA PM
[9] = 60 h, cumulative total water use 0-2.5 DAA (sum of the time points) vs negative control, read-out: % WU Total 0 to 2.5 DAA
[10] = 0 h, 0 DAA a.m. (10:30-12:50), read-out: % WU 0 DAA AM
[11] = 24 h, 1 DAA a.m. (7:30-12:50), read-out: % WU 1DAA AM
[12] = 24 h, 1 DAA p.m. (14:00-19:50), read-out: % WU 1DAA PM
[13] = 48 h, 2 DAA a.m. (07:30-12:50), read-out: % WU 2 DAA AM
[14] = 48 h, 2 DAA p.m. (14:00-19:50), read-out: % WU 2 DAA PM
[15] = 60 h, cumulative total WU (0-2.5 DAA), read-out: % WU Total 0 to 2.5 DAA

Row | SMILES | melting point [°C] | change in vivo at 500 µM [1, 3] [%] | change in vivo at 500 µM [1, 4] [%] | change in vivo at 500 µM [1, 5] [%] | change in vivo at 500 µM [1, 6] [%] | change in vivo at 500 µM [1, 7] [%] | change in vivo at 500 µM [1, 8] [%] | change in vivo at 500 µM [1, 9] [%] | change in vivo at 500 µM [2, 10] [%] | change in vivo at 500 µM [2, 11] [%] | change in vivo at 500 µM [2, 12] [%] | change in vivo at 500 µM [2, 13] [%] | change in vivo at 500 µM [2, 14] [%] | change in vivo at 500 µM [2, 15] [%]
1 | CCN1C(=O)CCc2cc(CNS(=O)(=O)c3ccc(Br)cc3)ccc21 [Compound 2.002, 4-bromo-N-[(1-ethyl-2-oxo-3,4-dihydroquinolin-6-yl)methyl]benzenesulfonamide] | 176 to 183 | -10.8 | -3.6 | -3.2 | -3.9 | -1.2 | -1.7 | -3.2 | -10.4 | -6.5 | -4 | -5.6 | -4.2 | -5.8
2 | CCN1C(=O)CCc2cc(CNS(=O)(=O)c3ccc(F)cc3F)ccc21 [Compound 2.006, N-[(1-ethyl-2-oxo-3,4-dihydroquinolin-6-yl)methyl]-2,4-difluoro-benzenesulfonamide] | 167 to 168 | -12.5 | -6.7 | -6.5 | -5.5 | -3 | -3.2 | -5.4 | -23.4 | -13.8 | -13 | -10.4 | -7.3 | -13.2
3 | CCN1C(=O)CCc2cc(CNS(=O)(=O)c3ccc(C)s3)ccc21 [Compound 2.061, N-[(1-ethyl-2-oxo-3,4-dihydroquinolin-6-yl)methyl]-5-methyl-thiophene-2-sulfonamide] | 149 to 152 | -18.8 | -10.8 | -7.5 | -2.8 | -1.6 | -0.8 | -6.2 | -50.4 | -7.9 | -2.2 | -0.5 | -1.2 | -13.7
4 | CCN1C(=O)CCc2cc(CNS(=O)(=O)c3ccsc3)ccc21 [Compound 2.068, N-[(1-ethyl-2-oxo-3,4-dihydroquinolin-6-yl)methyl]thiophene-3-sulfonamide] | 128 to 131 | -16.6 | -15.1 | -12.9 | -11.4 | -9.2 | -9.1 | -11.8 | -27 | -18.1 | -14.7 | -11.6 | -7.5 | -15.3

Further lines, with some results ahead:

Row | melting point [°C] | SMILES | change in vivo at 500 µM [1, 3] [%] | change in vivo at 500 µM [1, 4] [%] | change in vivo at 500 µM [1, 5] [%] | change in vivo at 500 µM [1, 6] [%] | change in vivo at 500 µM [1, 7] [%] | change in vivo at 500 µM [1, 8] [%] | change in vivo at 500 µM [1, 9] [%] | change in vivo at 500 µM [2, 10] [%] | change in vivo at 500 µM [2, 11] [%] | change in vivo at 500 µM [2, 12] [%] | change in vivo at 500 µM [2, 13] [%] | change in vivo at 500 µM [2, 14] [%] | change in vivo at 500 µM [2, 15] [%]
5 | 143 to 145 | CCCN1C(=O)CCc2cc(CNS(=O)(=O)c3ccc(Br)cc3)ccc21 [Compound 3.002, 4-bromo-N-[(2-oxo-1-propyl-3,4-dihydroquinolin-6-yl)methyl]benzenesulfonamide] | -16.3 | -12.2 | -13.4 | -10.5 | -9.5 | -7 | -10.9 | -22.5 | -13.7 | -9.4 | -6.7 | -4.7 | -11.4
6 | 182 to 183 | CCCN1C(=O)CCc2cc(CNS(=O)(=O)c3c(F)cccc3F)ccc21 [Compound 3.005, 2,6-difluoro-N-[(2-oxo-1-propyl-3,4-dihydroquinolin-6-yl)methyl]benzenesulfonamide] | -16.2 | -10.5 | -9.2 | -7.9 | -5.4 | -5.3 | -8.2 | -37.5 | -24.9 | -21.9 | -12.9 | -12 | -21.9
7 | 141 to 144 | CCCN1C(=O)CCc2cc(CNS(=O)(=O)c3ccc(F)cc3F)ccc21 [Compound 3.006, 2,4-difluoro-N-[(2-oxo-1-propyl-3,4-dihydroquinolin-6-yl)methyl]benzenesulfonamide] | -18 | -14.1 | -12.6 | -10.2 | -6.6 | -5.7 | -10.3 | -36.5 | -28.3 | -24.2 | -17.8 | -14.9 | -24.5
8 | 155 to 156 | CCCN1C(=O)CCc2cc(CNS(=O)(=O)c3ccccc3F)ccc21 [Compound 3.007, 2-fluoro-N-[(2-oxo-1-propyl-3,4-dihydroquinolin-6-yl)methyl]benzenesulfonamide] | -16 | -12 | -11.4 | -9.5 | -6.6 | -5.9 | -9.4 | -16.1 | -12.7 | -9.7 | -7.7 | -7.6 | -10.8
9 | 143 to 144 | CCCN1C(=O)CCc2cc(CNS(=O)(=O)c3ccc(F)cc3)ccc21 [Compound 3.009, 4-fluoro-N-[(2-oxo-1-propyl-3,4-dihydroquinolin-6-yl)methyl]benzenesulfonamide] | -16.9 | -13.9 | -13.2 | -11.9 | -9 | -8.2 | -11.6 | -17.5 | -9.4 | -6.4 | -5.5 | -4.2 | -8.5
10 | 143 to 144 | CCCN1C(=O)CCc2cc(CNS(=O)(=O)c3ccc(OC)cc3)ccc21 [Compound 3.010, 4-methoxy-N-[(2-oxo-1-propyl-3,4-dihydroquinolin-6-yl)methyl]benzenesulfonamide] | -14.4 | -8.3 | -6.3 | -5.4 | -2.5 | -2.2 | -5.5 | -28 | -3 | -1 | -2.1 | -1.7 | -5.7
11 | 95 to 99 | C/C=C/S(=O)(=O)NCc1ccc2c(c1)CCC(=O)N2CCC [Compound 3.060, (E)-N-[(2-oxo-1-propyl-3,4-dihydroquinolin-6-yl)methyl]prop-1-ene-1-sulfonamide] | -14.8 | -10 | -10.6 | -8.4 | -8.2 | -6.4 | -9.3 | -7.9 | -5.8 | -2.6 | -5.4 | -2.7 | -4.6
12 | 129 to 133 | CCCN1C(=O)CCc2cc(CNS(=O)(=O)/C=C/c3cccc(Cl)c3)ccc21 [Compound 3.069, (E)-2-(3-chlorophenyl)-N-[(2-oxo-1-propyl-3,4-dihydroquinolin-6-yl)methyl]ethenesulfonamide] | -8.1 | -4.1 | -6.1 | -5.5 | -4.8 | -3.8 | -5 |  |  |  |  |  | 
